Source: patent publication US9522187B2, “Cancer therapy using beta glucan and antibodies” (University of Louisville Research Foundation, Inc., priority 2002, dated 2016)

How the values were obtained:
[1] = tested on: human LAN-1 neuroblastoma; assay: Oral barley β-glucan with antibody against LAN-1 neuroblastoma xenograft (FIG. 10); type: in vivo, athymic BALB/c mice; conditions: β-glucan daily by gavage for 21-29 days; 3F8 i.v. twice weekly
Procedure: Neuroblastoma cells were xenografted subcutaneously in athymic BALB/c mice. Treatment started in groups of 5 mice, 2 weeks after tumor implantation when visible tumors reached 0.7-0.8 cm in diameter. The β-glucan groups was treated with […] daily by gavage for a total of 21-29 days. Monoclonal antibodies (3F8) were administered i.v. at a dose of […] twice weekly. Tumor size was measured from the first day of treatment, and the product of the largest diameter was expressed as a percentage of the size on day zero.

[2] = molecular target: T1, CR3 (Homo sapiens, UniProt P11215); assay: Inhibition of SZP-FITC staining of neutrophils by unlabeled polysaccharides; type: binding; conditions: compared with soluble yeast MP β-glucan or SZP
T1 construct: endogenous in cells
Procedure: Neutrophils were incubated at 4° C. with graded concentrations of β-glucans (SZP, laminarin, MP β-glucan, barley β-glucan, and lentinan), α-mannan or dextran for 15 minutes and then stained by addition of 1.0 mg/ml of SZP-FITC and incubated for an additional 15 minutes at 4° C. Percentage inhibition was then compared with polysaccharide concentration. […] Similar results were obtained when the same unlabeled polysaccharides were examined for inhibition of laminarin β-glucan-FITC staining. The rank order for inhibiting activity for both experiments was SZP>laminarin>MP β-glucan. However, CM β-glucan (carboxymethyl β-glucan from yeast), barley β-glucan, and lentinan inhibited laminarin-FITC staining more efficiently than they inhibited SZP-FITC staining.

[3] = tested on: advanced low-grade or slow-growing NHL; conditions: patients who completed treatment; cited from earlier work
[4] = tested on: Human NK cells; assay: β-glucan and CR3-dependent stimulation of NK cell cytokine secretion, ELISA (FIG. 13); type: cell-based; conditions: 18 hours at 37° C.; particulate yeast β-glucan and grifolan 2 g/ml, MP β-glucan and SZP 2.0 μg/ml
Procedure: The function of NK cells in mediating host defense includes both direct cytotoxicity of tumor cells and the secretion of cytokines such as TNF-α and IFN-γ that can potentially regulate immune responses and recruit tumoricidal macrophages. […] Human NK cells were cultured with either particulate yeast β-glucan or soluble CR3-binding polysaccharides for 18 hours at 37° C. Culture supernatants were then analyzed for TNF-α by ELISA. […] Anti-CR3 blocks both β-glucan binding to CR3, as well as the binding of primed CR3 to iC3b on the EC3bi target cells.

[5] = tested on: MMT mammary carcinoma; assay: β-glucan therapy of MMT mammary carcinoma in normal and C3-deficient 129/J mice (FIG. 8); type: in vivo; conditions: daily i.v. therapy
Text: The requirement for C3 in β-glucan therapy was confirmed in experiments with C3-deficient 129/J mice implanted with the MMT mammary carcinoma. Twelve normal (C3+/+) and 12 C3-deficient (C3−/−) 129/J mice were implanted with the MMT mammary carcinoma tumor cell line and palpable tumors were allowed to form before beginning daily i.v. therapy of groups of 6 mice each with PBS or β-glucan. A similar protocol was used with normal (CD+/+) and CR3-deficient (CD11b-knockout; Cd11b−/−) BALB/c mice implanted with Ptas64 mammary tumors.

[6] = tested on: iC3b-opsonized breast tumor cells; assay: β-glucan priming of murine neutrophil CR3 for cytotoxicity (FIG. 4); type: cell-based; conditions: normal murine neutrophils
Procedure: The effect of β glucan priming of murine neutrophil CR3 on subsequent cytotoxic triggering by iC3b-opsonized breast tumor cells is shown in FIG. 4. […] This activity disappears, however, when antibody to the CD11b (murineCR3 equivalent) is added, interfering with the receptor's ability to bind to iC3b. […] Adding antibody against CD11b had little effect on CD11b-deficient neutrophils, as expected.

[7] = tested on: RMA-S-MUC1 tumor cells; assay: s.c. RMA-S-MUC1 tumor therapy with 14.G2a or BCP8 mAb and/or NSG β-glucan (FIG. 17B-C, 18B-C); type: in vivo, C57B1/6 mice; conditions: 2-week therapy, observed for a 4-month period
Procedure: Three different tumor therapy protocols are shown. FIG. 17A is a graph showing Pta64 therapy with 11CI anti-MMTV mAb combined with glucan. FIG. 17B is a graph showing RMA-S-MUC1 therapy with i.v. 14 G2a anti-GD2 mab combined with glucan. FIG. 17C is a graph showing RMA-S-MUC1 therapy with i.v. BCP8 anti-MUC1 mab combined with glucan. After tumor cells were implanted, small tumors were allowed to form over 5-9 days before immunotherapy was carried out for a total period of 14 days. […] In graphs B and C, C57B1/6 mice were implanted s.c. with RMA-S-MUC1 tumor cells and then 5 days later treated with either 14.G2a anti-GD2 ganglioside and/or NSG β-glucan (300 μg per day) or BCP8 IgG2b […] and/or NSG β-glucan ([…] per day). […] Mean values and standard errors (SE) of the mean are shown.
(§1) RMA-S cells transfected with human MUC1 were also provided by Dr. Finn (Soares, M. M., et al., J. Immunol., 166: 6555-6563 (2001)), and 1×10^6 cell were implanted s.c. in C57B1/6 mice in or near a mammary fat pad. […]

[8] = tested on: RMA-S-MUC1 tumor cells; assay: s.c. RMA-S-MUC1 tumor therapy in CR3-deficient versus wild-type mice (FIG. 19, 20); type: in vivo, C57B1/6 mice
Procedure: FIGS. 19A-19B are graphs showing the enhancement of tumor regression mediated by NSG β-glucan requires leukocyte CR3 and fails in CR3-deficient (CD11b^−/−) mice. FIG. 19A is a graph showing the tumor diameter vs. therapy of wild type mice. FIG. 19B is a graph showing the tumor diameter vs. therapy of CR3 deficient mice. […] Tumor measurements were made at the indicated times (FIGS. 19A-19B) and then survival was monitored (FIGS. 20A-20B). Mice received 14.G2a anti-GD2 ganglioside mAb (100 μg every 3rd day) and/or NSG β-glucan (400 μg daily). There was no difference in the rate of tumor regression produced by mAb therapy alone in the CR3-deficient versus wild-type mice and there was no β-glucan enhancement of mAb-mediated tumor regression in the CR3-deficient mice. […] Mean values±SE of the mean are shown.
as §1

[9] = tested on: RMA-S lymphoma; assay: Survival of mice with RMA-S hepatic lymphomas treated with 14.G2a and/or β-glucan (FIG. 16); type: in vivo, C57B1/6 mice; conditions: therapy from day 5 for 3 weeks
Procedure: The C57B1/6 lymphoma EL-4, that highly expresses membrane GD2 ganglioside, was provided by Dr. Nai-Kong V. Cheung. Normal C57B1/6 mice were injected with 3×10^5 EL-4 cells i.v. to generate liver tumors (Zhang, H., et al., Cancer Res., 58: 2844-2849 (1998)). Ten days later, 4 groups of 6 mice were given i.v. 100 μl doses of: a) PBS (control group), b) SZP β-glucan (4 mg/ml) repeated daily, c) 3F8 mAb to GD2 ganglioside (2 mg/ml) repeated every 3rd day, or d) both daily β-glucan and 3F8 mAb every 3rd day. After 2 weeks of therapy, the mice were sacrificed and their livers were removed and weighed in comparison to the livers of a group of normal tumor-free mice. The net weight of liver tumors was calculated by subtracting the weight of a normal liver (1.0 g) from the weights of the livers from tumor-bearing mice. A similar liver tumor model was carried out using the C57B1/6 lymphoma RMA-S that similarly expresses GD2 ganglioside but is defective in peptide loading of MHC class I (kindly provided by Dr. Olivera J. Finn, Pittsburgh Cancer Institute, Pittsburgh, Pa.) in combination with 14.G2a mAb to GD2 ganglioside (100 μg, given i.v. every 3rd day). Mice were similarly divided into 4 groups that were treated beginning 5 days after i.v. injection of 3×10^5 cells with: 1) i.v. PBS (control), 2) i.v. NSG β-glucan (400 μg per day), 3) 14.G2a mAb, or 4) both NSG β-glucan and 14.G2a mAb. […]

[10] = tested on: Lewis Lung carcinoma tumor cells transfected with human MUC1 (LL/2-MUC1); assay: s.c. LL/2-MUC1 Lewis lung carcinoma therapy in C3-deficient versus wild-type mice (FIG. 21, 22); type: in vivo, C57B1/6 mice
Procedure: C3-deficient (C3^−/−) mice and their wild-type littermates on a C57BL/6 background were implanted s.c. with 1×10^6 Lewis Lung carcinoma tumor cells transfected with human MUC1 (LL/2-MUC1). After allowing 7 days for development of small tumors, mice were treated with BCP8 IgG2b anti-MUC1 mAb (200 μg every 3rd day) and/or NSG β-glucan (400 μg daily) for a total therapy period of 3 weeks. […] Mean values±SE of the mean are shown.
Lewis lung carcinoma cells (LL/2, CRL-1642) originally derived from C57B1/6 mice were obtained from the ATCC and transfected with a plasmid containing cDNA for human MUC1 that was provided by Dr. Olivera Finn (Soares, M. M., et al., J. Immunol., 166: 6555-6563, 2001.). A LL/2 line expressing a uniformly high surface density of MUC1 was selected by FACS sorting of cells stained with BCP8-FITC mAb (MoFlo High Speed Cell Sorter, Dako-Cytomation, Fort Collins, Colo.). A further selection was made by passaging the cell line two times in C57B1/6 mice given the cells s.c. A tumor line was selected that both expressed uniformly high levels of surface MUC1 and was capable of generating s.c. tumors in C57B1/6 injected with as few as 5×10^5 cells. Therapy of mice bearing these s.c. tumors was initiated after 7 days when tumors were only 1-2 mm in diameter. Four groups of six C3-deficient or their wild-type littermate C57B1/6 mice were treated with: a) i.v. PBS every 3rd day (control); b) 400 μg of NSG β-glucan given i.v. daily; c) 200 μg of BCP8 anti-MUC1 mAb given i.v. every 3rd day; d) combined therapy with BCP8 mAb and NSG β-glucan. Therapy was given for 3 weeks with measurement of tumor diameters every 3rd day, and mice were sacrificed when tumors reached 15 mm diameter. Mice were observed over a total period of 90 days for tumor-free survival.

[11] = tested on: EL-4 lymphoma; assay: mAb and/or β-glucan therapy of hepatic EL-4 lymphoma (FIG. 9, FIG. 15); type: in vivo, C57B1/6 mice; conditions: therapy from day 10 for 2 weeks; SZP β-glucan 100 μl of 4 mg/ml i.v. daily; 3F8 100 μl of 2 mg/ml i.v. every 3rd day
Procedure: Mice were injected with the EL-4 cells i.v., a protocol known to result in liver metastases. Ten days later, the mice were given daily i.v. doses of β-glucan alone, 3F8 mAb to GD2 ganglioside (a prominent tumor antigen of EL-4 cells), or 3-glucan plus 3F8 mAb. The 3F8 mAb is IgG3 and is a potent activator of complement and also mediates ADCC. […] As expected, the β-glucan had little effect on its own since the tumors bore little or no iC3b.
The C57B1/6 lymphoma EL-4, that highly expresses membrane GD2 ganglioside, was provided by Dr. Nai-Kong V. Cheung. Normal C57B1/6 mice were injected with 3×10^5 EL-4 cells i.v. to generate liver tumors (Zhang, H., et al., Cancer Res., 58: 2844-2849 (1998)). Ten days later, 4 groups of 6 mice were given i.v. 100 μl doses of: a) PBS (control group), b) SZP β-glucan (4 mg/ml) repeated daily, c) 3F8 mAb to GD2 ganglioside (2 mg/ml) repeated every 3rd day, or d) both daily β-glucan and 3F8 mAb every 3rd day. After 2 weeks of therapy, the mice were sacrificed and their livers were removed and weighed in comparison to the livers of a group of normal tumor-free mice. The net weight of liver tumors was calculated by subtracting the weight of a normal liver (1.0 g) from the weights of the livers from tumor-bearing mice. […]

[12] = molecular target: T1, CR3; assay: Neutrophil fluorescence staining by FITC-labeled polysaccharides (flow cytometry); type: binding; conditions: neutrophils
Text: Fluorescence intensity values obtained with individual polysaccharide-FITC conjugates cannot be compared, since the molar ratio of FITC to polysaccharide is likely to differ and cannot be readily calculated.

In the case of “(1,3),(1,4)-β-D-glucan [barley β-glucan]”, the “tumor growth (tumor size as percentage of day zero), in words” value [1] is reported as “neither β-glucan or mAb alone showed much effect” and the “affinity for CR3 (in words)” value [2] is reported as “relatively low affinity for CR3”.

For “rituximab: monoclonal antibody used to treat a type of non-Hodkin's lymphoma”, the “patients having complete remission” value [3] is listed as 6% and the “patients whose tumors shrunk by at least one half” value [3] is listed as 48%.

In the case of grifolan, the “NK cell cytokine secretion in the absence of target cells, in words” value [4] is reported as “secretion of both TNF-α and IL-6”.

In the case of β-glucan, the tumor reduction ([5]; C3-deficient (C3−/−) 129/J mice) is reported as “no significant tumor reduction”, the tumor reduction ([5]; normal (C3+/+) 129/J mice) is reported as 79% and the “cytotoxicity towards iC3b-opsonized breast tumor cells, in words” value [6] is reported as “high level of cytotoxicity”. The survival [7] was 20%, the “tumor regression, in words” value ([8]; CR3-deficient mice) was “no regression” and the “mice remaining tumor-free (survival)” value ([8]; wild-type mice, 14.G2a 100 μg every 3rd day, NSG β-glucan 400 μg daily, 21 days) was “no survivors”. The “survival, in words” value [9] was “no therapeutic benefit”, the “regression and survival, in words” value ([10]; C3-deficient mice) was “neither mAb nor β-glucan, separately or combined, elicited any regression” and the “survival, in words” value ([10]; wild-type mice) was “survival advantage compared to mAb alone”. For the same substance, the “tumor regression, in words” value ([10]; wild-type mice, BCP8 200 μg every 3rd day, NSG β-glucan 400 μg daily, 3 weeks) was “lower level of regression” and the “reduction in liver tumor net weight compared to untreated controls” value [11] was 25.6%.

With Dextran-FITC the “Polysaccharide-FITC Concentration Required for Maximum Specific Fluorescence Staining (Saturation of Receptor Binding Sites)” value [12] was “No specific staining” and the “Specific Fluorescence Mean Channel at Saturation (Total-Nonspecific Fluorescence Obtained in the Presence of Excess of Unlabeled Polysaccharide)” value [12] was 0.
